Measured values from patent US20190031613A1, “COMPOUNDS AND METHODS FOR THEIR USE IN THE TREATMENT OF MALARIA” (University of South Florida, priority 2016, published 2019).
In brackets after ≈: the same amount, converted by molar mass.

How the values were obtained:
[1] = system: P. berghei-GFP parasites; assay: in vivo efficacy, modified Thompson test; parameters: species or system mice; conditions: three daily doses days 3-5 PI, 0.5% aqueous HEC
Description: Prodrug 6d was orally tested for in vivo efficacy at four doses (0.3 mg/kg, 1.0 mg/kg, 3.0 mg/kg, and 10 mg/kg) in 0.5% aqueous HEC solution.

[2] = aqueous solubility at pH 2.5, UV-based assay; format: physicochemical; conditions: aqueous solution at pH 2.5, pH 2.5, aqueous buffer; read-out: aqueous solubility at acidic pH
Source text: Analogous to known AOCOM ether prodrugs, AOCOM iodides were used to prepare the desired prodrugs.^39 Thus, the synthesis route to the prodrugs commences with conversion of Boc-protected amino alcohols into corresponding Boc-protected aminoalkyloxycarbonyloxymethyl (amino AOCOM) iodides (FIG. 4a). Reaction of 4-quinolinols 1c′ and with the 1d′ with the Boc-protected amino AOCOM iodides, in presence of caesium carbonate, and subsequent deprotection leads to water-soluble HCl salts 6a-d (FIG. 4b). […] The assessment of the aqueous solubility at pH 7.4 was challenging due to the limited stability of the prodrug moiety at neutral pH and was not performed. […] In addition, solid material was rapidly dissolved in 0.5% aqueous HEC solution and visually inspected after 60 seconds for material dissolution.

[3] = system: multidrug resistant malarial strain W2 (pyrimethamine and chloroquine resistant); assay: in vitro antimalarial activity against strain W2; format: cell-based; conditions: strains W2 and TM90-C2B, strain not specified
Source text: FIG. 2a depicts the synthesis of 4(1H)-quinolones 1 via Conrad-Limpach reaction^24 and conversion to first set of prodrugs (2, 3 and 4) via O-acylation.
FIG. 4a depicts the synthesis of 4(1H)-quinolones 1 into amino AOCOM ether prodrugs 6 via O-alkylation and subsequent deprotection.

[4] = physchem; conditions: pH 7.4, aqueous buffer

Row | SMILES | Suppression [%] day 6 PI ([1]; 10 mg/kg PO) [%] | Day of death (avg) ([1]; 10 mg/kg PO, untreated 13) | Day of death (avg) ([1]; 50 mg/kg PO) | Suppression [%] day 6 PI ([1]; 50 mg/kg PO) [%] | solubility [2] [µM] | in vitro antimalarial activity / EC50 values relative to 1c [3] | solubility [4] [µM]
1 | CNCCCOC(=O)OCOc1c(-c2ccccc2C)c(C)nc2cc(OC)c(Cl)cc12.Cl [6b, 6-Chloro-7-methoxy-2-methyl-3-(o-tolyl)-4-(((3-(methylammonio)propyloxycarbonyl)oxy)methoxy)quinoline, chloride salt] | 52 | 13 | 13 | 72 | > 100 |  | 
2 | CCOC(=O)Oc1c(-c2ccccc2C)c(C)nc2cc(OC)c(Cl)cc12 [compound 4, 6-Chloro-7-methoxy-2-methyl-3-(o-tolyl)-4-((ethoxycarbonyl)oxy)quinoline] |  |  |  |  |  | comparable to the EC50 values of 1c | 1.2 (≈ 0.463 µg/mL)
